Drawing on patent publication US20030130298A1, “Cd45 inhibitors” (priority 1999, published 2003), this text covers IC50 and CC50 for four compounds.

Data set [1] has as its target T1, CD45 (Homo sapiens, UniProt P08575).
T1 construct: purchased BIOMOL (Plymouth Meeting, P.A.)
T1 sequence (P08575 599-1306 limits assumed): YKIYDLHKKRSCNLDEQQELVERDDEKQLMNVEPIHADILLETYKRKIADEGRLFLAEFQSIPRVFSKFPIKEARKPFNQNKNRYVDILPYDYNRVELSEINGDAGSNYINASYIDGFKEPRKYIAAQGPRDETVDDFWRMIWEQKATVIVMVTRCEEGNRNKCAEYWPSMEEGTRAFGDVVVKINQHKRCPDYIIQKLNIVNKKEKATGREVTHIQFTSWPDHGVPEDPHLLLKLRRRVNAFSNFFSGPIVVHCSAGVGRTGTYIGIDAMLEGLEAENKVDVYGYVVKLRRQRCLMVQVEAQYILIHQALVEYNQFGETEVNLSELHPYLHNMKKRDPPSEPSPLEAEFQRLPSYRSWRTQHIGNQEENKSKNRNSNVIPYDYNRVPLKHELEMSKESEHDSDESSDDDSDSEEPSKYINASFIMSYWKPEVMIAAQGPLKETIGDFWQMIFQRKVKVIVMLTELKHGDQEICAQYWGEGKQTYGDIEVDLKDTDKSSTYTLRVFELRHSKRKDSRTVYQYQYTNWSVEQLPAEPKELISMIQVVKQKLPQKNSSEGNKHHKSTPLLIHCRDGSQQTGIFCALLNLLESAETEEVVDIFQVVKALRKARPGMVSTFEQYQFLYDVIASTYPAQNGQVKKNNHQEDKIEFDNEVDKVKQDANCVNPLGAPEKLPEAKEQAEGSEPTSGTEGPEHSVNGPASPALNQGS
Put plainly: Phosphatase assay using pNPP as substrate. The format is biochemical. The note with it: pH 7.0. How it is done:
(§1) Potent inhibitors of CD45 have been discovered. Such inhibitors are useful for the treatment of various autoimmune disorders as well as for treatment of OGR. Inhibition of the phosphatase activity of CD45 by compounds of the present invention has been shown by incubating the cytosolic portion of CD45 with the compounds and p-nitrophenyl phosphate (pNPP), a phosphatase substrate. Spectrophotometric monitoring has shown that the liberation of p-nitrophenol from the substrate by CD45 is inhibited in the presence of the compounds disclosed herein. Inhibition of the phosphatase activity of CD45 by compounds of the present invention has also been shown using a p56^lckcarboxy-terminal phosphorylated peptide as a substrate.
CD45 enzyme was obtained from BIOMOL (Plymouth Meeting, P.A.). Phosphatase activity was assayed in a buffer containing final concentrations of 25 mM imidazole at pH 7.0, 50 mM NaCl, 2.5 mM ethylenediaminetetraacetic acid (“EDTA”), 5 mM dithiothreitol (“DTT”) and 10 μg/mL bovine serum albumin (“BSA”) using pNPP as a substrate. […] Activity was measured by following the increase in absorbance at 405 nm using a SpectraMax Plus spectrophotometric plate reader (Molecular Devices, Sunnyvale, Calif.).

For data set [2], the target named is T1, CD45. Put plainly: Phosphatase assay using lck 10-mer as substrate. The format is biochemical. The note with it: lck carboxy-terminal peptide TEGQpYQPQP substrate, read-out: Ick IC50. The procedure: as §1
Phosphatase activity was assayed in 96 well plates in a buffer containing final concentrations of 25 mM HEPES at pH 7.2, 5 mM DTT and 10 μg/mL BSA, using the lck carboxy-terminal peptide TEGQpYQPQP as the substrate (Cho, H., Krishnaraj, R., Itoh, M., Kitas, E., Bannwarth, W., Saito, H., Walsh, C. T. 1993. Substrate specificities of catalytic fragments of protein tyrosine phosphatases (HPTPb, LAR, and CD45) toward the phosphotyrosylpeptide substrates and thiophosphotyrosylated peptides as inhibitors. Protein Science 2:977-984). Compounds were tested in a range from 30 to 0.01 μM in a final concentration of 5% DMSO. Enzyme was incubated with substrate, with or without compound, at room temperature for 1.5 h. At the end of the incubation period, BIOMOL “Green Reagent” (BIOMOL, Plymouth Meeting, Pa.) was added to each well, the plates incubated at room temperature for 30 min and absorbance read at 620 nm.

The nature of data set [3]: Cytotoxicity assay (Calcein-AM uptake). The format is cell-based. The following applies: human, PHA-expanded T-cell lymphoblasts derived from PBMC, overnight incubation, Calcein-AM viability.
Experimental: Calcein-AM (Molecular Probes, Eugene, Oreg.) uptake, as a quantitative measure of cell viability, was used to evaluate the toxic effect of compounds on T cells.
The T-cell lymphoblasts were purified by separation over Lymphoprep, plated at 2×10 ^5/well in a round bottom 96-well plate containing RPMI with compound and incubated overnight at 37° C. in an incubator containing 5% CO2. The dilution scheme and culture media were the same as those used in the T-cell proliferation assay. After the incubation period, cells were washed with Dulbecco's phosphate- buffered saline (D-PBS) and incubated with 1 μM Calcein-AM for 30-45 min in D-PBS as described in the technical sheet provided with The LIVE/DEAD Viability/Cytotoxicity Kit from Molecular Probes.
The subject of data set [4] is Peripheral blood mononuclear cells (T cells). As to the kind of experiment: T cell proliferation assay (anti-CD3 OKT3 activated PBMC, [3H]thymidine). It counts as cell-based. The note with it: Homo sapiens; PBMC activated with OKT3 30 ng/mL; read-out: T cell prolif. IC50. The procedure:
Whole blood was obtained from healthy human blood donors. Peripheral blood mononuclear cells (“PBMC”) were isolated using Lymphoprep density-gradient centrifugation (Nycomed Amersham, Oslo, Norway), washed, counted and resuspended at 2×10^6 cells/mL in RPMI 1640 medium containing glutamine, 0.1 mg/mL gentamycin and 10% heat inactivated human serum. PBMC were transferred to 96-well plates (2×10^5 cells/well) containing compound or vehicle control, with the final concentration of DMSO not to exceed 0.3%, and incubated for 1 hour before addition of the activating anti-CD3 antibody, OKT3 (30 ng/mL). After 24 hours in culture, the cells were pulsed with [^3H]thymidine (1 μCi/well) overnight and harvested the next day onto 96-well Packard GF/C filter plates using a Packard Cell Harvester (Packard Instruments, Meriden, Conn.). The filter plate was dried, the bottom of the plate sealed, 25 μL of Microscint 20 scintillation fluid added to each well, the top of the plate sealed with TopSeal-A, and the plate counted on a Packard TopCount. The data from the TopCount is transferred into Excel 5 (Microsoft, Redmond, Wash.) and formatted for EC50 determination using Prism software (GraphPad Software, San Diego, Calif.).

By IC50 is commonly meant the midpoint of a concentration-inhibition curve. For orientation: CC50 means the concentration at which the toxic effect on the cells reaches its halfway point.

Turning to `O=C1C(=O)c2ccsc2-c2ccccc21` [Example 4, naphtho[1,2-b]thiophene-4,5-dione], the IC50 is 1500 nM against CD45 [1] and over 30000 nM at CD45 [2] (pH 7.2, 1.5 h). Also, in data set [3], the half-maximal cytotoxic concentration (CC50) was 3500 nM.
On to `O=C1C(=O)c2ccoc2-c2ccccc21` [Example 3, naphtho[,1,2b]furan-4,5-dione], for which the half-inhibitory concentration (IC50) against CD45 [1] came to 1100 nM; at CD45 [2] (pH 7.2, […]), 4500 nM. Further, the CC50 in data set [3] is 3500 nM.
Regarding `O=C1C(=O)c2ncccc2-c2ccccc21` [Example 1, benzo[f]quinoline-5,6-dione], the IC50 is 2300 nM against CD45 [1]; over 30000 nM at CD45 [2] (pH 7.2, 1.5 h); 400 nM in data set [4]. The CC50 in data set [3] is 7000 nM.
For the compound `O=C1C(=O)c2cccnc2-c2ccccc21` [Example 2, benzo[h]quinoline-5,6-dione], the IC50 against CD45 [1] came to 1000 nM; on CD45 [2] (pH 7.2, […]), 3100 nM; in data set [4], 240 nM. In addition, in data set [3], the CC50 is 2400 nM.
